Measurements taken from patent publication US20260306642A1, “STAT DEGRADERS AND USES THEREOF” (Recludix Pharma, Inc., priority 2023, published 2026).
Read-outs that look alike come from different tables or passages of the source.

Experiments:
STAT3 = molecular target: T1, STAT3 (Homo sapiens, UniProt P40763); assay: STAT3 Fluorescence Polarization (FP) Assay; type: binding
T1 construct: Recombinant STAT3 protein (STAT3(G127-I722))
Protocol: An FP assay was developed to determine IC50 values for test substances.
Recombinant STAT3 protein (STAT3(G127-I722)) at 25 nM was combined with a fluorescently labeled, phosphotyrosine peptide probe (5-FAM-GpYLPQTV-NH2) at 2 nM in FP buffer (10 mM HEPES pH 7.4, 50 mM NaCl, 1 mM EDTA, 0.05% Tween 20, 2 mM DTT). 50 μL of STAT3-probe mixture was added to serial diluted compounds in black, 96-well plates (Greiner BioOne 655076) to a final concentration of 1% DMSO. Reaction components were mixed, and FP was measured after 45-minute incubation at room temperature using a Tecan Spark multimode plate reader. FP signal (mP) was plotted against the log concentration of the test substances and IC50 values were calculated by nonlinear regression analysis using GraphPad Prism software. For STAT3 FP assay, A=≤100 nM; B=>100-1000 nM; C=>1-10 μM; and D=>10 μM.

STAT6 = molecular target: T2, STAT6 (Homo sapiens, UniProt P42226); assay: STAT6 Fluorescence Polarization (FP) Assay; type: binding
T2 construct: Recombinant STAT6 protein (STAT6(W123-T658))
T2 sequence (P42226 123-658): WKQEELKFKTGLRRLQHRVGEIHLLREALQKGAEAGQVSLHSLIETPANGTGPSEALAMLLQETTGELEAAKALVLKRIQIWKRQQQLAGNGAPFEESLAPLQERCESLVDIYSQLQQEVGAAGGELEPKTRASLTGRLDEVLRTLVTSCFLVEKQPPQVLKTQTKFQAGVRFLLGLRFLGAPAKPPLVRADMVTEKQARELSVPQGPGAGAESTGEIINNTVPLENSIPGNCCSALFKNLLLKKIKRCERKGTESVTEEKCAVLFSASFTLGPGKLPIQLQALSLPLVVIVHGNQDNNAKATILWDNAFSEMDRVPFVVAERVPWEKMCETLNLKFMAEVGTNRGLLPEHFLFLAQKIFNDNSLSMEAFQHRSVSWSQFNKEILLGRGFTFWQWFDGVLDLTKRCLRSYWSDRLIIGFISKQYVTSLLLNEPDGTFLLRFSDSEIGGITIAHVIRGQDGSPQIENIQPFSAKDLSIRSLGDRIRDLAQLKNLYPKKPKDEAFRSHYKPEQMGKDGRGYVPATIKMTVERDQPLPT
Protocol: An FP assay was developed to determine IC50 values for test substances. Recombinant STAT6 protein (STAT6(W123-T658)) at 250 nM was combined with a fluorescently labeled, phosphotyrosine peptide probe (5-FAM-ApYKPFQDLI-NH2) at 2 nM in FP buffer (10 mM HEPES pH 7.4, 50 mM NaCl, 1 mM EDTA, 0.05% Tween 20, 2 mM DTT). 50 μL of STAT6-probe mixture was added to serial diluted compounds in black, 96-well plates (Greiner BioOne 655076) to a final concentration of 1% DMSO. Reaction components were mixed, and FP was measured after 45-minute incubation at room temperature using a Tecan Spark multimode plate reader. FP signal (mP) was plotted against the log concentration of the test substances and IC50 values were calculated by nonlinear regression analysis using GraphPad Prism software. For STAT6 FP assay, A=≤300 nM; B=>300-3000 nM; C=>3-30 μM; and D=>30 μM.

pSTAT3 = pSTAT3 (Homo sapiens, UniProt P40763); assay: MSD-pSTAT-PBMC Assay (pSTAT3, IL-6 stimulated); type: cell-based
Source text: Cryopreserved Peripheral Blood Mononuclear Cells (PBMC) are from AllCells. Recombinant Human IL-4 and IL-6 are from Peprotech. Mouse monoclonal anti-STAT3 antibody, rabbit monoclonal anti-pY705-STAT3 antibody, rabbit monoclonal Anti-pY641-STAT6 antibody, and lysis buffer are from Cell Signaling Technology (CST). Mouse monoclonal anti-STAT6 antibody is from BioLegend. Assay plates, blocker, and anti-rabbit secondary antibody are from Meso Scale Discovery (MSD).
Cryopreserved PBMCs were thawed out and allowed to recover overnight in IMDM+10% heat-inactivated FBS prior to plating 50,000 (STAT3) or 25,000 (STAT6) cells per well in 96-well U-bottom tissue culture plates. Cells were treated with compound for 3 hrs, then stimulated with 10 ng/mL IL-6 (STAT3) or 1 ng/mL IL-4 (STAT6) for 10 min. Cells were then spun down and washed with ice-cold PBS prior to lysing the cell pellet with 1× lysis buffer (CST) with 1× HALT protease and phosphatase inhibitor cocktail (Thermo). Lysates were transferred to and incubated overnight at 4° C. with shaking in QuickPlex 96-well high bind assay plates (MSD) pre-coated overnight with 30 μL per well of […] mouse monoclonal anti-STAT3 antibody (STAT3) or 2 μg/mL mouse monoclonal anti-STAT6 antibody (STAT6) in 1× PBS, and pre-blocked for 1 hour with 3% Blocker-A (MSD). Captured protein in the assay plates were then washed and probed with 25 μL per well of […] rabbit monoclonal anti-pY705-STAT3 antibody (STAT3) or […] rabbit monoclonal Anti-pY641-STAT6 antibody (STAT6) in 1% Blocker-A for 1 hour at room temperature with shaking, then washed and probed with 25 ul per well of 1 ug/ml Sulfo-TAG Labeled Goat Anti-Rabbit Antibody (MSD) in 1% Blocker-A for 1 hour at room temperature with shaking. Assay plates were then washed and 150 μL of 1× Read Buffer-T (MSD) was added to each well prior to reading on an SQ120 MSD Plate Reader. Assay signal from each sample was subtracted by the signal from unstimulated control wells and normalized to DMSO control wells. IC50 values were calculated using Graph Pad Prism Dose-Response Nonlinear Regression with variable slope. For both pSTAT3 and pSTAT6 A=≤100 nM; B=>100-1000 nM; C=>1000-3000 nM; and D=>3 μM.

[1] = compound 3 hrs, then 10 ng/mL IL-6 10 min, pY705-STAT3, read-out: pSTAT3 IC50
[2] = read-out: pSTAT3 IC50, compound 3 hrs, then 10 ng/mL IL-6 10 min, pY705-STAT3

T1 sequence (P40763 127-722): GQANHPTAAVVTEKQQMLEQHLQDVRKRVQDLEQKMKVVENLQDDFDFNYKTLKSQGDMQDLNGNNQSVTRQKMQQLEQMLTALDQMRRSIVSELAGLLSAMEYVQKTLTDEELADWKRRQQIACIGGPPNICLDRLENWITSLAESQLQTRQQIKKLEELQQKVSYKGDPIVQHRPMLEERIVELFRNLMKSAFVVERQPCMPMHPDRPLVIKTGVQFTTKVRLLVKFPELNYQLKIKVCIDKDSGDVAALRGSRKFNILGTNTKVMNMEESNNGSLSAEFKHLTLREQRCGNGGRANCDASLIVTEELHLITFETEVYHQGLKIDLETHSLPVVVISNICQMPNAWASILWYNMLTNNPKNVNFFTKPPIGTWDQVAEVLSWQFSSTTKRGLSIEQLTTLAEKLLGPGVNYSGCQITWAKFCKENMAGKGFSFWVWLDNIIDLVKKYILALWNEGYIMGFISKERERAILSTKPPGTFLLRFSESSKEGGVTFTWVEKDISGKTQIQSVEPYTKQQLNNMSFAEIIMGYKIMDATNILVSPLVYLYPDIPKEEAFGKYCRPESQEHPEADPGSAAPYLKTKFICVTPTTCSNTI
Chain of pSTAT3 (P40763 whole entry): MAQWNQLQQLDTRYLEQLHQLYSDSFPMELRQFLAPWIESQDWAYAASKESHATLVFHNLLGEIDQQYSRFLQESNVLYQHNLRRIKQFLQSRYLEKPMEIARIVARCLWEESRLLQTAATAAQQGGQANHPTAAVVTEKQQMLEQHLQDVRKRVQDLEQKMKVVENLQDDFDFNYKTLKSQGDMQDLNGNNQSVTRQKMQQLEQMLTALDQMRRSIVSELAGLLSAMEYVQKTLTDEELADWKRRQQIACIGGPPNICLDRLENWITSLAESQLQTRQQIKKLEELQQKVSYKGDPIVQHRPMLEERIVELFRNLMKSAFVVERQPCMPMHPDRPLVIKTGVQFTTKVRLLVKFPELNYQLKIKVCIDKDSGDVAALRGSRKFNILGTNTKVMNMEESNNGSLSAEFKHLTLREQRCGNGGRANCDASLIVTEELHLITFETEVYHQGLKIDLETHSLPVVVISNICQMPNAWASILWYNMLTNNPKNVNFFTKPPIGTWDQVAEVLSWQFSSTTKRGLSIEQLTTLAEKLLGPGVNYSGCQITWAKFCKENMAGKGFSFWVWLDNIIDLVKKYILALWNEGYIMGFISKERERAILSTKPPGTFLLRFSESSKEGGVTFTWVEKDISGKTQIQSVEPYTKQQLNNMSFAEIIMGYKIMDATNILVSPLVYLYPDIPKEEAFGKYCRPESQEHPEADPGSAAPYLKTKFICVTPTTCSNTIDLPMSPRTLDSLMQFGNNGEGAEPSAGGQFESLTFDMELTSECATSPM

| IC50 (pSTAT3; [1]) | Compound | IC50 (STAT3) | IC50 (STAT6) | IC50 (pSTAT3; [2]) |
| --- | --- | --- | --- | --- |
| > 3 µM | O=C1CCC(c2ccc(OCC(=O)N3CCN(c4ccncc4C4CN(C(=O)[C@@H]5CC[C@@H]6CCC[C@H](NC(=O)c7cc8cc(C(F)(F)P(=O)(O)O)ccc8s7)C(=O)N65)C4)CC3)cc2)C(=O)N1 (stereo partly drawn) [Compound 28, ((2-(((3S,6S,9aS)-3-(3-(4-(4-(2-(4-(2,6-dioxopiperidin-3-yl)phenoxy)acetyl)piperazin-1-yl)pyridin-3-yl)azetidine-1-carbonyl)-5-oxooctahydro-1H-pyrrolo[1,2-a]azepin-6-yl)carbamoyl)benzo[b]thiophen-5-yl)difluoromethyl)phosphonic acid] | < 100 nM | 3 to 30 µM | – |
| – | Cc1ncsc1-c1ccc([C@H](C)NC(=O)[C@@H]2C[C@@H](O)CN2C(=O)[C@@H](NC(=O)COCCOCC(=O)NC2(c3ccccn3)CN(C(=O)[C@@H]3CC[C@H]4CCCC[C@H](NC(=O)c5cc6cc(C(F)(F)P(=O)(O)O)ccc6s5)C(=O)N43)C2)C(C)(C)C)cc1 [Compound 31, (difluoro(2-(((3S,6S,10aR)-3-(3-(2-(2-(2-(((S)-1-((2S,4R)-4-hydroxy-2-(((S)-1-(4-(4-methylthiazol-5-yl)phenyl)ethyl)carbamoyl)pyrrolidin-1-yl)-3,3-dimethyl-1-oxobutan-2-yl)amino)-2-oxoethoxy)ethoxy)acetamido)-3-(pyridin-2-yl)azetidine-1-carbonyl)-5-oxodecahydropyrrolo[1,2-a]azocin-6-yl)carbamoyl)benzo[b]thiophen-5-yl)methyl)phosphonic acid] | < 100 nM | 3 to 30 µM | > 3 µM |
| > 3 µM | CN(CCOc1ccc(C2CCC(=O)NC2=O)cc1)c1ccncc1C1CN(C(=O)[C@@H]2CC[C@@H]3CCC[C@H](NC(=O)c4cc5cc(C(F)(F)P(=O)(O)O)ccc5s4)C(=O)N32)C1 (stereo partly drawn) [Compound 21, ((2-(((3S,6S,9aS)-3-(3-(4-((2-(4-(2,6-dioxopiperidin-3-yl)phenoxy)ethyl)(methyl)amino)pyridin-3-yl)azetidine-1-carbonyl)-5-oxooctahydro-1H-pyrrolo[1,2-a]azepin-6-yl)carbamoyl)benzo[b]thiophen-5-yl)difluoromethyl)phosphonic acid] | < 100 nM | 3 to 30 µM | – |
| – | Cn1c(=O)n(C2CCC(=O)NC2=O)c2ccc(C#CCCC3CCN(c4ccncc4C4CN(C(=O)[C@@H]5CC[C@@H]6CCC[C@H](NC(=O)c7cc8cc([C@@H](F)P(=O)(O)O)ccc8s7)C(=O)N65)C4)CC3)cc21 (stereo partly drawn) [Compound 40, ((1S)-(2-(((3S,6S,9aS)-3-(3-(4-(4-(4-(1-(2,6-dioxopiperidin-3-yl)-3-methyl-2-oxo-2,3-dihydro-1H-benzo[d]imidazol-5-yl)but-3-yn-1-yl)piperidin-1-yl)pyridin-3-yl)azetidine-1-carbonyl)-5-oxooctahydro-1H-pyrrolo[1,2-a]azepin-6-yl)carbamoyl)benzo[b]thiophen-5-yl)fluoromethyl)phosphonic acid] | < 100 nM | > 30 µM | < 0.1 µM |

| Compound | IC50 (pSTAT3; [1]) | IC50 (STAT3) | IC50 (STAT6) | IC50 (pSTAT3; [2]) |
| --- | --- | --- | --- | --- |
| Cc1ncsc1-c1ccc(CNC(=O)[C@@H]2C[C@@H](O)CN2C(=O)[C@@H](NCCCCOc2ccncc2C2CN(C(=O)[C@@H]3CC[C@@H]4CCC[C@H](NC(=O)c5cc6cc(C(F)(F)P(=O)(O)O)ccc6s5)C(=O)N43)C2)C(C)(C)C)cc1 [Compound 2, (difluoro(2-(((3S,6S,9aS)-3-(3-(4-(4-(((S)-1-((2S,4R)-4-hydroxy-2-((4-(4-methylthiazol-5-yl)benzyl)carbamoyl)pyrrolidin-1-yl)-3,3-dimethyl-1-oxobutan-2-yl)amino)butoxy)pyridin-3-yl)azetidine-1-carbonyl)-5-oxooctahydro-1H-pyrrolo[1,2-a]azepin-6-yl)carbamoyl)benzo[b]thiophen-5-yl)methyl)phosphonic acid] | > 3 µM | < 100 nM | 3 to 30 µM | – |
